Reference: PMC6222789, “CF3-Substituted Mollugin 2-(4-Morpholinyl)-ethyl ester as a Potential Anti-inflammatory Agent with Improved Aqueous Solubility and Metabolic Stability” (Molecules : A Journal of Synthetic Chemistry and Natural …, 2018)

Key:
cell viability = assay: MTT cell viability assay; type: cell-based; conditions: 10 μM concentration
CYP3A4 = assay: CYP inhibition assay, CYP3A4; type: in vitro ADME, human; conditions: for CYP Inhibition (% of Control) 3A4: 10 μM, CYP activity in presence of inhibitor as % of control, human liver microsomes
Protocol: (§1) All incubations were performed in duplicate, and the mean values were used for analysis. The assays of phenacetin O-deethylase, tolbutamide 4-hydroxylase, S-mephenytoin 4-hydroxylase, dextromethorphan O-demethylase and midazolam 1′-hydroxylase activities were determined as probe activities for CYP1A2, CYP2C9, CYP2C19, CYP2D6 and CYP3A, respectively, using cocktail incubation and tandem mass spectrometry. Briefly, incubation reaction was performed with 0.25 mg/mL human liver microsomes in a final incubation volume of 100 μL. The incubation medium contained 100 mM phosphate buffer (pH 7.4) with probe substrates. The incubation mixture containing various inhibitors (10 μM) was pre-incubated for 5 min. After pre-incubation, an NADPH regenerating system was added. After incubation at 37 °C for 15 min, the reaction was stopped by placing the incubation tubes on ice and adding 40 μL of ice-cold acetonitrile. The incubation mixtures were then centrifuged at 10,000× g for 5 min at 4 °C. Aliquots of the supernatant were injected onto an LC-MS/MS system. The CYP-mediated activities in the presence of inhibitors were expressed as percentages of the corresponding control values.

CYP2C9 = molecular target: T1, CYP2C9 (Homo sapiens, UniProt P11712); assay: CYP inhibition assay, CYP2C9; type: in vitro ADME; conditions: for CYP Inhibition (% of Control) 2C9: 10 μM, CYP activity in presence of inhibitor as % of control, human liver microsomes
T1 construct: from tissue; host or cells: human liver microsomes
Protocol: as §1

[1] = Metabolic stability, human liver microsomes; type: in vitro ADME; conditions: 1 μM
In short: (§2)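 Compound at 1 μM final incubated at 37 °C with 0.5 mg/mL liver microsomal protein plus NADPH regeneration system in 100 mM phosphate, pH 7.4; reactions stopped with cold acetonitrile at 0 and 30 min. Parent remaining by LC-MS/MS peak area, relative to 0 min (100%).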

CYP1A2 = molecular target: T2, CYP1A2 (Homo sapiens, UniProt P05177); assay: CYP inhibition assay, CYP1A2; type: in vitro ADME; conditions: for CYP Inhibition (% of Control) 1A2: 10 μM, CYP activity in presence of inhibitor as % of control, human liver microsomes
T2 construct: from tissue; host or cells: human liver microsomes
T2 sequence (P05177 1-516): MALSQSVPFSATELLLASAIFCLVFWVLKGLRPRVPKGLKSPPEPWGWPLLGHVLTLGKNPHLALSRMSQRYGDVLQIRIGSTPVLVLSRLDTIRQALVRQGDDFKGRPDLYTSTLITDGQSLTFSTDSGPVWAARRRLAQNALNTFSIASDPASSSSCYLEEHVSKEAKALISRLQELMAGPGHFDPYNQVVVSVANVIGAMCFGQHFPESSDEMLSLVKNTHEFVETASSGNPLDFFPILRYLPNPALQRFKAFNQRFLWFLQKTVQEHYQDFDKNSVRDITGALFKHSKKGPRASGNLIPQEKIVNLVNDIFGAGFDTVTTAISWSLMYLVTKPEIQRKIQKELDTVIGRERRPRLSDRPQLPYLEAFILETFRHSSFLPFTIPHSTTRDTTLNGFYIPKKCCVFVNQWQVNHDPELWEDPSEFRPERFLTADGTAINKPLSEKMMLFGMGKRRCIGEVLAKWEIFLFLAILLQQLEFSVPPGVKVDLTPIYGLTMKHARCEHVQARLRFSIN
Protocol: as §1

[2] = Metabolic stability, dog liver microsomes; type: in vitro ADME; conditions: 30 min, 1 μM
In short: as §2

[3] = Plasma stability, rat plasma; type: in vitro ADME; conditions: 2 h, 37 °C, 1 μM
Protocol: The plasma stability assay was performed by incubation of human or rat plasma with a test compound in a final concentration of 1 μM for 120 min at 37 °C. The incubation was terminated by addition of 40 μL of ice-cold acetonitrile and vortexing for 5 min. The precipitated proteins were removed by centrifugation at 14,000× g for 5 min at 4 °C. Aliquots of the supernatant were injected onto a Shimadzu Nexera XR LC system. Percentages of the parent compound remaining were calculated by comparing peak areas using the Xcalibur software (version 1.6.1, Waltham, MA, USA).

[4] = tested on: TNF-α-induced adhesion of U937 monocytic cells to HT-29 cells; assay: TNF-α-induced colonic epithelial cell adhesion assay; type: cell-based, human; conditions: Homo sapiens, Epithelial cell, 10 uM; U937 adhesion to HT-29 cells, TNF-α-induced
[5] = Metabolic stability, mouse liver microsomes; type: in vitro ADME; conditions: 30 min, 1 μM
In short: as §2

T1 sequence (P11712 whole entry): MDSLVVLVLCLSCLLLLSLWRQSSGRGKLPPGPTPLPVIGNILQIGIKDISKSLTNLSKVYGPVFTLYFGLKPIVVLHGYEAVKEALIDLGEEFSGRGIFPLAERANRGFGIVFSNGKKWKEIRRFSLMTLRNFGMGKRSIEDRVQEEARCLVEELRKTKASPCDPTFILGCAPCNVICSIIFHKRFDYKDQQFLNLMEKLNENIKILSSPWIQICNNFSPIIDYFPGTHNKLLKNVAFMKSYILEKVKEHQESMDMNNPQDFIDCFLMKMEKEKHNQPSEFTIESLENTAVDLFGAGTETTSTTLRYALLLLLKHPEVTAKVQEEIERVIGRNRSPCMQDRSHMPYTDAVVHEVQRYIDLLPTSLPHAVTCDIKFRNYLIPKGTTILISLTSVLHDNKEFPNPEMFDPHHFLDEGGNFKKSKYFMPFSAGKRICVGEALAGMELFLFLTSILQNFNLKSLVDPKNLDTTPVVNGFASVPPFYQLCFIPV

| CYP Inhibition (% of Control) 3A4 (CYP3A4) | CYP Inhibition (% of Control) 2C9 (CYP2C9) | Metabolic Stability (% Remain, 30 min) Human [1] | CYP Inhibition (% of Control) 1A2 (CYP1A2) | Metabolic Stability (% Remain, 30 min) Dog [2] | Plasma Stability (% Remain, 2 h) Rat [3] | Metabolic Stability (% Remain, 30 min) Mouse [5] | inhibition at 15 min, 10 μM (CYP3A4; human, liver microsomes, pH 7.4, probe midazolam (1′-hydroxylation), at 10 μM drug concentration, read-out: % inhibition of CYP 3A4) | inhibition at 15 min, 10 μM (CYP2C9; human, liver microsomes, pH 7.4, probe tolbutamide (4-hydroxylation), at 10 μM drug concentration, read-out: % inhibition of CYP 2C9) | inhibition at 15 min, 10 μM (CYP1A2; human, liver microsomes, pH 7.4, probe phenacetin (O-deethylation), at 10 μM drug concentration, read-out: % inhibition of CYP 1A2) | SMILES | effect on cell viability (MTT) (cell viability) | inhibition at 10 µM [4] |
| --- | --- | --- | --- | --- | --- | --- | --- | --- | --- | --- | --- | --- |
| 91 % of Control | 99 % of Control | 83 % Remain | 58 % of Control | 45 % Remain | 97 % Remain | 10 % Remain | – | – | – | CC1(C)C=Cc2c(C(=O)OCCN3CCOCC3)c(O)c3ccccc3c2O1 [6d, 2-Morpholinoethyl 6-hydroxy-2,2-dimethyl-2H-benzo[h]chromene-5-carboxylate] | neither 6d nor 15c affects the cell viability | 46.3 ± 6.2% |
| 90 % of Control | 97 % of Control | 84 % Remain | 57 % of Control | 86 % Remain | 51 % Remain | 45 % Remain | < 50% | < 50% | < 50% | CC1(C)C=Cc2c(C(=O)OCCN3CCOCC3)c(O)c3cc(C(F)(F)F)ccc3c2O1 [15c, 2-Morpholinoethyl 6-hydroxy-2,2-dimethyl-8-(trifluoromethyl)-2H-benzo[h]chromene-5-carboxylate] | neither 6d nor 15c affects the cell viability | 46 ± 7.6% |
